Measured values taken from patent US6838436B1, “Inhibitors of proteasomal activity for stimulating bone growth” (Osteoscreen Inc., priority 1998, dated 2005).
Read-outs that look alike come from different tables or passages of the source. Each block holds one compound with its values, some of them ahead of it. Where a SMILES comes first, the peptide text is derived from it. [ ]: non-standard residue; d: D form. The star is where a group is joined. Nva = CCC[C@H](N)C(=O)O; Cbz = O=C(OCc1ccccc1)*; OtBu = CC(C)(C)O*

Legend:
[1] = tested on: hair follicles of skin explants; assay: Cultured skin explants from 5 day old mice, hair follicle diameter and elongation (Example 11); format: cell-based, C3H/HeS1c mice; conditions: 72 hours
Method: Cultured skin explants from 5 day old mice cultured for 72 hours were treated with proteasome inhibitors, non-proteasomal proteases and non-proteasomal inhibitors of NF-κB and effects on hair follicle diameter and follicle elongation were determined according to the method of Kamiya, T., et al., J Derm Sci (1998) 17:54-60. Skin slices from the dorsal skin of 5 day old C3H/HeS1c mice were cultured in 1 ml of αMEM and 0.1% BSA for 72 hours and then assessed for changes in hair follicle diameter and hair elongation under an inverted microscope, using image analysis. […] Thus, the chymotrypsin-like activity of the proteasome is the catalytic component of the proteasome that is responsible for the effects of these compounds on hair follicle differentiation and hair growth. Only proteasome inhibitors had discernable effects on these parameters.

hair follicles [2] = assay: Induction of anagen in hair follicles in vivo (Example 12); design: species or system C57 black mice; conditions: for hair follicle differentiation in vivo: examined 16 days later
Method: Inhibitors of the proteasomal chymotrypsin-like activity were treated for their capacity to induce transit of hair follicles into anagen in vivo in C57 black mice eight weeks of age.

hair follicles [3] = assay: Hair follicle number after injection over the calvaria (Example 8); format: in vivo, Swiss ICR mice; conditions: for number of hair follicles: administered in the same way
From the text: The assay described above to assess the effect of compounds on calvarial bone growth can also be used to assess the ability of compounds to stimulate hair growth. The test compound or appropriate control vehicle is applied to the upper and lower back of male ICR Swiss white mice either topically or by subcutaneous injection. The vehicle is selected as appropriate for the compound to be tested and for the route of administration. Optionally, the hair in the test area may be removed prior to administration. After a suitable interval, typically 7 days, the mice are anesthetized and a biopsy of the dorsal treatment area is taken using a 6 mm dermal punch. The specimens are fixed in 10% buffered formalin and imbedded in paraffin wax, and sectioned and stained to observe hair follicles. In addition, photography can be used to observe and record hair growth; typically such growth is observed after 14-18 days. After a suitable interval, typically 21 days, the animals may be euthanized and the hair analyzed for fiber analysis and the tissue from the treatment area analyzed for quantitation of hair follicles.
In more detail, male ICR Swiss white mice, aged 4-6 weeks and weighing 13-26 gm, are employed, using 4-5 mice per group. The calvarial bone growth assay is performed as described above. Briefly, the test compound or appropriate control vehicle is injected into the subcutaneous tissue over the right calvaria of normal mice. Typically, the control vehicle is the vehicle in which the compound was solubilized, and is PBS containing 5% DMSO or is PBS containing Tween (2 μl/10 ml). The animals are sacrificed on day 14 and bone growth measured by histomorphometry. Bone samples for quantitation are cleaned from adjacent tissues and fixed in 10% buffered formalin for 24-48 hours, decalcified in 14% EDTA for 1-3 weeks, processed through graded alcohols; and embedded in paraffin wax. Three to five […] sections of the calvaria are prepared, and representative sections are selected for histomorphometric assessment of the effects on bone formation and bone resorption. Sections are measured by using a camera lucida attachment to trace directly the microscopic image onto a digitizing plate. Bone changes are measured on sections cut 200 μm apart, over 4 adjacent 1×1 mm fields on both the injected and noninjected sides of the calvaria. New bone is identified by its characteristic woven structure, and osteoclasts and osteoblasts are identified by their distinctive morphology. Histomorphometry software (OsteoMeasure, Osteometrix, Inc., Atlanta) is used to process digitizer input to determine cell counts and measure areas or perimeters.
The in vivo bone calvarial growth assay of Example 3 was modified to observe the number of hair follicles in treated mice. […]

neonatal mouse calvaria = assay: Neonatal mouse calvaria assay (in vitro / ex vivo) for bone formation; format: cell-based, ICR Swiss white mouse; conditions: for EC50: read-out: Bone Formation (ED50-μM)
Method: An assay for bone resorption or bone formation is similar to that described by Gowen M. & Mundy G., J Immunol (1986) 136:2478-82. Briefly, four days after birth, the front and parietal bones of ICR Swiss white mouse pups are removed by microdissection and split along the sagittal suture. In an assay for resorption, the bones are incubated in BGJb medium (Irvine Scientific, Santa Ana, Calif.) plus 0.02% (or lower concentration) β-methylcyclodextrin, wherein the medium also contains test or control substances. The medium used when the assay is conducted to assess bone formation is Fitton and Jackson Modified BGJ Medium (Sigma) supplemented with 6 μg/ml insulin, 6 μg/ml transferrin, 6 ng/ml selenous acid, calcium and phosphate concentrations of 1.25 and 3.0 mM, respectively, and ascorbic acid to a concentration of 100 μg/ml is added every two days. The incubation is conducted at 37° C. in a humidified atmosphere of 5% CO2 and 95% air for 96 hours.
Following this, the bones are removed from the incubation media and fixed in 10% buffered formalin for 24-48 hours, decalcified in 14% EDTA for 1 week, processed through graded alcohols; and embedded in paraffin wax. Three […] sections of the calvaria are prepared. Representative sections are selected for histomorphometric assessment of bone formation or bone resorption. Bone changes are measured on sections cut 200 μm apart. Osteoblasts and osteoclasts are identified by their distinctive morphology.
Selected compounds and appropriate controls were assayed in vitro (ex vivo) for bone formation activity (described above in “Techniques for Neonatal Mouse Calvaria Assay (in vitro)). Histomorphometrical assessments of ex vivo calvaria were carried out using an OsteoMetrics bone morphometry measurement program, according to the manufacturer's instructions. Measurements were determined using either a 10- or 20-fold objective with a standard point counting eyepiece graticule.
New bone formation was determined (using a 10× objective) by measuring the new bone area formed in one field in 3 representative sections of each bone (4 bones per group). Each measurement was carried out ½ field distance from the end of the suture. Both total bone and old bone area were measured. Data were expressed as new bone area in μm^2.
Osteoblast numbers are determined by point counting. The number of osteoblast cells lining the bone surface on both sides of the bone are counted in one field using a 20× objective. Data are expressed as osteoblast numbers/mm of bone surface. […]

[4] = Mus musculus, calvarial assay in vitro

Compound: CC[C@H](C)[C@H](NC(=O)[C@H]([C@@H](C)CC)N(C)C(C)=O)C(=O)N[C@H](C(=O)N[C@@H](CC(C)C)C(=O)[C@@]1(C)CO1)[C@@H](C)O [Epoxomicin]
- effective in concentrations as low as [1]: 12.5 nM
- hair follicle differentiation in vivo (hair follicles [2]; dose not given, subcutaneously in the scalp daily for 5 days): increased hair follicle differentiation in vivo

Compound: CC(=O)N[C@@H](CSC(=O)[C@]1([C@@H](O)C(C)C)NC(=O)[C@H](C)[C@@H]1O)C(=O)O [Lactacystin, lactacystin]
- number of hair follicles (hair follicles [3]; dose not given): stimulated an increase in the number of hair follicles
- effect on hair follicle differentiation and hair growth ([1]; dose not given): effectively stimulated hair follicle differentiation and enhanced hair growth
- new bone formation in the in vitro calvarial assay (neonatal mouse calvaria): showed new bone formation
- EC50 (neonatal mouse calvaria; [4]): 1 µM

Compound: CCC[C@@H](C=O)NC(=O)[C@H](CC(C)C)NC(=O)[C@H](CC(C)C)NC(=O)OCc1ccccc1 [MG-115, N-carbobenzoyl-Leu-Leu-Nva-CHO] (Cbz-Leu-Leu-[Nva]-aldehyde)
- number of hair follicles (hair follicles [3]; 10 mg/kg): stimulated an increase in the number of hair follicles
- new bone formation in the in vitro calvarial assay (neonatal mouse calvaria): positive results although less dramatic than those of simvastatin
- EC50 (neonatal mouse calvaria; [4]): 1 µM

Compound: CC(C)C[C@@H](C=O)NC(=O)[C@@H](CC(C)C)NC(=O)[C@H](CC(C)C)NC(=O)OCc1ccccc1 [MG-132, N-carbobenzoyl-Leu-Leu-Leu-CHO] (Cbz-Leu-[dL]-Leu-aldehyde)
- number of hair follicles (hair follicles [3]; 10 mg/kg): stimulated an increase in the number of hair follicles
- effect on hair follicle differentiation and hair growth ([1]; 0.5 μM): effectively stimulated hair follicle differentiation and enhanced hair growth
- new bone formation in the in vitro calvarial assay (neonatal mouse calvaria): showed new bone formation
- EC50 (neonatal mouse calvaria; Mus musculus): 0.5 µM

Compound: CC[C@H](C)[C@H](NC(=O)OCc1ccccc1)C(=O)N[C@@H](CCC(=O)OC(C)(C)C)C(=O)N[C@@H](C)C(=O)N[C@H](C=O)CC(C)C [PSI, N-carbobenzoyl-Ile-Glu-(OtBu)-Ala-Leu-CHO] (Cbz-IE(OtBu)AL-aldehyde)
- number of hair follicles versus control mice (hair follicles [3]; 5mg/kg/day injected three times a day for 5 days over the calvaria, sacrificed sixteen days later): strikingly large increase in the number of hair follicles
- effect on hair follicle differentiation and hair growth ([1]; 12.5 nM): effectively stimulated hair follicle differentiation and enhanced hair growth
- inducing bone formation compared with BMP-2 and bFGF (neonatal mouse calvaria): as good as, or better than, BMP-2 and bFGF
- EC50 (neonatal mouse calvaria; [4]): 0.03 µM
- hair follicle differentiation in vivo (hair follicles [2]; 5 mg/kg/day subcutaneously in the scalp daily for 5 days): increased hair follicle differentiation in vivo

- EC50 (neonatal mouse calvaria; calvarial assay in vitro): 0.2 µM
Compound: simvastatin
- new bone formation in the in vitro calvarial assay (neonatal mouse calvaria): showed new bone formation
- effect on hair follicles (hair follicles [2]; injected locally into the subcutaneous tissue in sufficient concentrations to cause local periosteal bone formation): had no effect on hair follicles
